Like-named read-outs stand apart in the source and are kept apart here.
What was measured:
[1] = tested on: reelin in Entorhinal Cortex (EC2); experiment: reelin in entorhinal cortex after four weeks of osmotic minipump treatment (Example 5); format: in vivo, rat; settings: levetiracetam 10 mg/kg/day in osmotic minipumps for four weeks, aged-impaired rats
aged-impaired rats (AI) = format: in vivo, rat
Experimental: FIG. 1 depicts the effects of administering levetiracetam on the spatial memory retention of ten aged-impaired rats (AI) in an eight-arm Radial Arm Maze (RAM) test. Six treatment conditions are employed: vehicle control, levetiracetam (1.25 mg/kg/day), levetiracetam (2.5 mg/kg/day), levetiracetam (5 mg/kg/day), levetiracetam (10 mg/kg/day) and levetiracetam (20 mg/kg/day). In the RAM task used, there is a one-hour delay between presentation of a subset of arms (5 arms available and 3 arms blocked) and completion of the eight-arm win-shift task (eight arms available). Rats are pre-treated 30-40 minutes before daily trials with a one-time drug/control treatment. The number of errors made by the rats during the retention phase is used as a measure of spatial memory retention. Errors are defined as instances when rats enter an arm from which food has already been retrieved in the pre-delay component of the trial or when rats re-visit an arm in the post-delay session that had already been visited. Paired t-tests are used to compare the number of errors between different doses of levetiracetam and vehicle control. […]
A Radial Arm Maze (RAM) behavioral task is one example of a cognitive test, specifically testing spacial memory (Chappell et al. Neuropharmacology 37: 481-487, 1998). The RAM apparatus consists of, e.g., eight equidistantly spaced arms. A maze arm projects from each facet of a center platform. A food well is located at the distal end of each arm. Food is used as a reward. Blocks can be positioned to prevent entry to any arm. Numerous extra maze cues surrounding the apparatus may also be provided. After habituation and training phases, spatial memory of the subjects may be tested in the RAM under control or test compound-treated conditions. As a part of the test, subjects are pretreated before trials with a vehicle control or one of a range of dosages of the test compound. At the beginning of each trial, a subset of the arms of the eight-arm maze is blocked. Subjects are allowed to obtain food on the unblocked arms to which access is permitted during this initial “information phase” of the trial. Subjects are then removed from the maze for a delay period, e.g., a 60 second delay, a 15 minute delay, a one-hour delay, a two-hour delay, a six hour delay, a 24 hour delay, or longer) between the information phase and the subsequent “retention test,” during which the barriers on the maze are removed, thus allowing access to all eight arms. […] The identity and configuration of the blocked arms vary across trials. The number of “errors” the subjects make during the retention test phase is tracked. An error occurs in the trial if the subjects entered an arm from which food had already been retrieved in the pre-delay component of the trial, or if it re-visits an arm in the post-delay session that had already been visited. A fewer number of errors would indicate better spatial memory. The number of errors made by the test subject, under various test compound treatment regimes, can then be compared for efficacy of the test compound in treating cognitive impairment associated with CNS disorders.

somatostatin in DG hilus = experiment: Somatostatin (SOM) immunohistochemistry, hilar interneuron counts in aged-impaired rats; format: in vivo, rat; settings: 10 mg/kg/day, four-week treatment, AI-LEV vs AI-VEH p<0.01, AI-LEV vs Y p=0.679
Description: Tissue was labeled with anti-SOM antiserum (Santa Cruz Biotechnology; cat. no. SC7819-P) using an established immunoperoxidase protocol and tissue sections were processed concurrently to minimize inter-replication variability (Haberman et al., 2009). The anti-SOM antiserum can detect somatostatin. Briefly, sections were washed in 0.1M phosphate-buffered saline (PBS) to remove cryoprotectant, and endogenous peroxidases were quenched in 0.3% H202 in PBS. After additional PBS washes, sections were blocked in 5% normal horse serum in PBS with 0.3% Triton. Sections were then incubated with primary antibody at a dilution of 1:1600 in PBS containing 0.15% Triton and 3% normal serum for 72 hours at 4° C. with agitation. […] The secondary antibody was detected with avidin-biotin complex (ABC Elite; Vector Laboratories Inc., Burlingame, Calif.) and the avidin-biotin complex was visualized with nickel-enhanced diaminobenzadine (Vector Laboratories Inc., Burlingame, Calif.). […]
Interneuron quantification was performed using a Zeiss Axioplan 2 microscope equipped with a motorized stage. […] Neuron counts were analyzed as the total number of hilar interneurons per hippocampal section for each rat.

[2] = tested on: entorhinal cortex of aMCI subjects; experiment: fMRI activity in entorhinal cortex (EC) during successful memory judgments; format: in vivo, human; settings: levetiracetam 125 mg twice a day for two weeks vs placebo
[3] = tested on: reelin in Entorhinal Cortex (EC2); experiment: Reelin mRNA in situ hybridization in entorhinal cortex of aged-impaired rats; format: in vivo, rat; settings: 10 mg/kg/day for 28 days, compared to AI-VEH, p=0.033
Experimental: In situ hybridization was carried out as described by Haberman et al., (2008). Free-floating tissue sections were washed in 0.75% glycine in 0.1M phosphate buffer two times, followed by a single wash in phosphate buffer. After that, sections were reacted in Proteinase K buffer containing 1.0 μg/ml proteinase K for 30 minutes at 37° C. Sections were then treated with acetic anhydride solution (11.3% triethanolamine, 0.25% acetic anhydride, 0.04 M acetic acid) for 10 minutes at room temperature. This was followed by two 15-minute washes in 2× sodium chloride/citrate buffer (SSC buffer; 20× concentration, 3M NaCl, 0.3M sodium citrate). Next, sections were transferred to hybridization buffer containing 20% formamide, 0.4×Denhardt's solution, 4% dextran sulfate, and 1.6×SSC) supplemented with 0.25 mg/ml tRNA, 0.33 mg/ml sheared salmon sperm DNA, 100 mM DTT, and 1×10^7 cpm/ml 35S-UTP-labeled probe for overnight reaction at 60° C. The following day, sections were washed at 60° C. in 4×SSC/0.01M DTT and 2×SSC/50% formamide. They were then incubated with RNase (20 μg/ml) at 37° C. for 30 min. […] Slides were dried overnight, exposed to a phosphoimager screen, and quantified by using ImageQuant (GE Healthcare). Digital images were acquired of entorhinal cortical sections from the same levels for all animals and the subregion of interest was outlined and quantified. […]

Compound: CC[C@@H](C(N)=O)N1CCCC1=O [levetiracetam, (2S)-2-(2-oxopyrrolidin-1-yl) butanamide]
- reelin in Entorhinal Cortex (EC2) [1]: restores reelin in Entorhinal Cortex (EC2)
- memory performance relative to vehicle control treatment (aged-impaired rats (AI)): significantly improves memory performance
- human equivalent dose (HED) of the effective rat dose (aged-impaired rats (AI); HED for a 70 kg human): 28-56 mg twice a day
- human equivalent dose (HED) of the effective rat dose (aged-impaired rats (AI); body surface area conversion of 5-10 mg/kg in rats): 0.8 to 1.6 mg/kg/day
- average no. of errors±standard error of the mean (SEM) (aged-impaired rats (AI); levetiracetam 5 mg/kg/day i.p. 30-40 min before trial, one-hour delay, n=10, vehicle 2.00±0.42): 0.75±0.32
- memory performance relative to vehicle control treatment (aged-impaired rats (AI); levetiracetam 10 mg/kg/day i.p., one-hour delay, paired t-test t(9)=2.37, p=0.042): significantly improves memory performance
- performance of AI rats in the radial maze task (aged-impaired rats (AI); levetiracetam 20 mg/kg, FIG. 1): fails to improve the performance of AI rats
- memory performance in AI rats (aged-impaired rats (AI); rat, in vivo): does not significantly improve the memory performance
- levels of somatostatin in DG hilus (number of SOM-immunoreactive hilar neurons) (somatostatin in DG hilus): restores the levels of somatostatin
- EC activity during memory judgments [2]: normalizes activity
- reelin mRNA expression in the lateral entorhinal cortex (EC2) [3]: significantly increased the expression of reelin

Source: patent US11160785B2, “Methods and compositions for improving cognitive function” (AgeneBio, Inc., priority 2013, dated 2021)
